These results are taken from patent US10233173B2, “Substituted 1,2,3-triazoles as NR2B-selective NMDA modulators” (JANSSEN PHARMACEUTICA NV, priority 2016, dated 2019).

In the assay the target is human GluN1/GluN2B NMDA receptors (Homo sapiens, UniProt Q05586+Q13224). The experiment in a line: Cell-based calcium flux (FLIPR) assay on cloned human NR1/NR2B ion channels expressed in mammalian cells. The conditions noted are these: standard assay; glutamate at ~EC80; FLIPR calcium flux. The procedure, abridged: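 Calcium influx followed by FLIPR fluorescence after 5 min compound exposure and a further 5 min co-agonist challenge: 10 μM glycine with glutamate at ~EC80 (standard) or EC40 (HTS).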
Chain of human GluN1/GluN2B NMDA receptors (Q13224 27-1484, other chains not shown): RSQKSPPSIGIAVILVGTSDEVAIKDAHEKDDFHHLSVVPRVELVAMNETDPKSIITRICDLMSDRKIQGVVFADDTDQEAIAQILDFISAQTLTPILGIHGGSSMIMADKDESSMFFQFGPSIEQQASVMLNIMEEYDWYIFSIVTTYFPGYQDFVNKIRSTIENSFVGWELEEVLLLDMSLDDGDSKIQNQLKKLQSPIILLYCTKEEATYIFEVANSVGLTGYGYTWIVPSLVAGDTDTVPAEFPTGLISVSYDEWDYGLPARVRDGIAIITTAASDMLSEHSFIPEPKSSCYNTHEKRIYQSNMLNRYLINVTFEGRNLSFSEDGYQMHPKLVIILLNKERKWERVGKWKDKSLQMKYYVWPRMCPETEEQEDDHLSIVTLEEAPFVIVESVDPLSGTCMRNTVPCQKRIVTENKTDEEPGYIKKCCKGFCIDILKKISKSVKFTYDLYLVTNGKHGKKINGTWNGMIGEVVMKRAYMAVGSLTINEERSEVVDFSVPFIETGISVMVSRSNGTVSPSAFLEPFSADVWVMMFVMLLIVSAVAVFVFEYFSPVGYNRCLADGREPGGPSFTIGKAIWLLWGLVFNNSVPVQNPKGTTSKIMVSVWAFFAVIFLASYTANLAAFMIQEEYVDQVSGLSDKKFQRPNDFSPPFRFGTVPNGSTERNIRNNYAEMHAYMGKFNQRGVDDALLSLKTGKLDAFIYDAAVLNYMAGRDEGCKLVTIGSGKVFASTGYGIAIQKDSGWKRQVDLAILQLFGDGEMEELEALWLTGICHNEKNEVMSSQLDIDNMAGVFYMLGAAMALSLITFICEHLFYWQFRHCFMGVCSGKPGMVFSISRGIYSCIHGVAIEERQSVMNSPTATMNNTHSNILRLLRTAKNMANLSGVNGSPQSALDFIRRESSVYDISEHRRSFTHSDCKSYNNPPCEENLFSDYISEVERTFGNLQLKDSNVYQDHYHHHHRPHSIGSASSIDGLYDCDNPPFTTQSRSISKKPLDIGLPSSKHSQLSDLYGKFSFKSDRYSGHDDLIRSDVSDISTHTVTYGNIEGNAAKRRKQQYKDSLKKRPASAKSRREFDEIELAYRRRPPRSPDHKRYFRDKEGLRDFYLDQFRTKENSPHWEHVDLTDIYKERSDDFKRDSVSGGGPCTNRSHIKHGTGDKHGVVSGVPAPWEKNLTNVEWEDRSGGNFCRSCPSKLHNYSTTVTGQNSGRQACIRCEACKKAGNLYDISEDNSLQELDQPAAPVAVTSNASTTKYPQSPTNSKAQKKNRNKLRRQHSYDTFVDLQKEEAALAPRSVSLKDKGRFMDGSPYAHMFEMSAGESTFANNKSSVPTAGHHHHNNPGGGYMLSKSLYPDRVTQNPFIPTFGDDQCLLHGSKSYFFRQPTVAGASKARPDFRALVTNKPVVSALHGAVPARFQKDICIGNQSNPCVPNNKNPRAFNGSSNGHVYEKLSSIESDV
In general terms: Calcium flux is commonly read through the fluorescence of an indicator in the cells.
In the case of `CC(F)(F)c1cc(-n2cc(COc3ncc(C(F)F)cn3)nn2)ccc1F` [Example 562, 2-[[1-[3-(1,1-Difluoroethyl)-4-fluoro-phenyl]triazol-4-yl]methoxy]-5-(difluoromethyl)pyrimidine], the 50% inhibitory concentration (IC50) – broadly, the point on the concentration scale where inhibition reaches its midpoint – is 0.014 µM.

For the compound `CC(F)(F)c1cc(-n2cc(COc3nccc(C(F)F)n3)nn2)ccc1F` [Example 563, 2-[[1-[3-(1,1-Difluoroethyl)-4-fluoro-phenyl]triazol-4-yl]methoxy]-4-(difluoromethyl)pyrimidine], the concentration for half-maximal inhibition (IC50) came to 0.048 µM.

Take `CC(F)(F)c1cc(-n2cc(COc3nccc(C(F)(F)F)n3)nn2)ccc1F` [Example 564, 2-[[1-[3-(1,1-Difluoroethyl)-4-fluoro-phenyl]triazol-4-yl]methoxy]-4-(trifluoromethyl)pyrimidine]: the half-inhibitory concentration (IC50) came out at 0.272 µM.

As for `CC(C)(O)c1cnc(OCc2cn(-c3ccc(F)c(C(C)(F)F)c3)nn2)nc1` [Example 566, 2-[2-[[1-[3-(1,1-Difluoroethyl)-4-fluoro-phenyl]triazol-4-yl]methoxy]pyrimidin-5-yl]propan-2-ol], the IC50 turned out to be 0.008 µM.

For `COC(C)(C)c1cnc(OCc2cn(-c3ccc(F)c(C(C)(F)F)c3)nn2)nc1` [Example 567, 2-[[1-[3-(1,1-Difluoroethyl)-4-fluoro-phenyl]triazol-4-yl]methoxy]-5-(1-methoxy-1-methyl-ethyl)pyrimidine], the concentration for half-maximal inhibition (IC50) stood at 4.63 µM.

For `CC(F)(F)c1cc(-n2cc(COc3nccc(CO)n3)nn2)ccc1F` [Example 568, [2-[[1-[3-(1,1-Difluoroethyl)-4-fluoro-phenyl]triazol-4-yl]methoxy]pyrimidin-4-yl]methanol], the IC50 stood at 0.025 µM.

On to `COCc1cnc(OCc2cn(-c3ccc(F)c(C(C)(F)F)c3)nn2)nc1` [Example 569, 2-[[1-[3-(1,1-Difluoroethyl)-4-fluoro-phenyl]triazol-4-yl]methoxy]-5-(methoxymethyl)pyrimidine], for which the IC50 worked out at 0.089 µM.

Turning to `COCc1ccnc(OCc2cn(-c3ccc(F)c(C(C)(F)F)c3)nn2)n1` [Example 570, 2-[[1-[3-(1,1-Difluoroethyl)-4-fluoro-phenyl]triazol-4-yl]methoxy]-4-(methoxymethyl)pyrimidine], the IC50 turned out to be 0.011 µM.

As to `CC(F)(F)c1cc(-n2cc(COc3ncc(CO)cn3)nn2)ccc1F` [Example 571, [2-[[1-[3-(1,1-difluoroethyl)-4-fluoro-phenyl]triazol-4-yl]methoxy]pyrimidin-5-yl]methanol], the IC50 came out at 0.021 µM.

In the case of `CC(F)(F)c1cc(-n2cc(COc3ncc(OC(F)F)cn3)nn2)ccc1F` [Example 572, 2-[[1-[3-(1,1-Difluoroethyl)-4-fluoro-phenyl]triazol-4-yl]methoxy]-5-(difluoromethoxy)pyrimidine], the IC50 stood at 0.025 µM.

On to `Cc1cnc(OCc2cn(-c3ccc(F)c(C(C)(F)F)c3)nn2)nc1C` [Example 573, 2-[[1-[3-(1,1-Difluoroethyl)-4-fluoro-phenyl]triazol-4-yl]methoxy]-4,5-dimethyl-pyrimidine], for which the IC50 is 0.019 µM.

On to `Cc1nc(OCc2cn(-c3ccc(F)c(C(C)(F)F)c3)nn2)ncc1Cl` [Example 574, 5-Chloro-2-[[1-[3-(1,1-difluoroethyl)-4-fluoro-phenyl]triazol-4-yl]methoxy]-4-methyl-pyrimidine], for which the concentration for half-maximal inhibition (IC50) worked out at 0.01 µM.

For `Cc1nc(OCc2cn(-c3ccc(F)c(C(C)(F)F)c3)nn2)ncc1F` [Example 575, 2-[[1-[3-(1,1-Difluoroethyl)-4-fluoro-phenyl]triazol-4-yl]methoxy]-5-fluoro-4-methyl-pyrimidine], the IC50 is 0.006 µM.

Regarding `Cc1cnc(OCc2cn(-c3ccc(F)c(C(C)(F)F)c3)nn2)nc1N` [Example 576, 2-[[1-[3-(1,1-Difluoroethyl)-4-fluoro-phenyl]triazol-4-yl]methoxy]-5-methyl-pyrimidin-4-amine], the IC50 worked out at 0.017 µM.

As to `CNc1nc(OCc2cn(-c3ccc(F)c(C(C)(F)F)c3)nn2)ncc1C` [Example 577, 2-[[1-[3-(1,1-Difluoroethyl)-4-fluoro-phenyl]triazol-4-yl]methoxy]-N,5-dimethyl-pyrimidin-4-amine], the IC50 stood at 0.128 µM.

Turning to `CNc1nc(OCc2cn(-c3ccc(F)c(C(C)(F)F)c3)nn2)ncc1F` [Example 578, 2-[[1-[3-(1,1-Difluoroethyl)-4-fluoro-phenyl]triazol-4-yl]methoxy]-5-fluoro-N-methyl-pyrimidin-4-amine], the IC50 amounted to 0.14 µM.

Regarding `Cc1cnc(OCc2cn(-c3ccc(F)c(C(C)(F)F)c3)nn2)nc1N(C)C` [Example 579, 2-[[1-[3-(1,1-Difluoroethyl)-4-fluoro-phenyl]triazol-4-yl]methoxy]-N,N,5-trimethyl-pyrimidin-4-amine], the IC50 is 0.087 µM.

As to `CC(F)(F)c1cc(-n2cc(COc3nccc(N)n3)nn2)ccc1F` [Example 580, 2-[[1-[3-(1,1-Difluoroethyl)-4-fluoro-phenyl]triazol-4-yl]methoxy]pyrimidin-4-amine], the IC50 worked out at 0.088 µM.

Consider `CNc1ccnc(OCc2cn(-c3ccc(F)c(C(C)(F)F)c3)nn2)n1` [Example 581, 2-[[1-[3-(1,1-Difluoroethyl)-4-fluoro-phenyl]triazol-4-yl]methoxy]-N-methyl-pyrimidin-4-amine], for which the IC50 was determined as 0.033 µM.

With `CN(C)c1ccnc(OCc2cn(-c3ccc(F)c(C(C)(F)F)c3)nn2)n1` [Example 582, 2-[[1-[3-(1,1-Difluoroethyl)-4-fluoro-phenyl]triazol-4-yl]methoxy]-N,N-dimethyl-pyrimidin-4-amine], the IC50 stood at 0.028 µM.

On to `CC(F)(F)c1cc(-n2cc(COc3ncc(C#N)cn3)nn2)ccc1F` [Example 583, 2-[[1-[3-(1,1-Difluoroethyl)-4-fluoro-phenyl]triazol-4-yl]methoxy]pyrimidine-5-carbonitrile], for which the IC50 was found to be 0.067 µM.

Consider `CC(F)(F)c1cc(-n2cc(COc3ncc(S(C)(=O)=O)cn3)nn2)ccc1F` [Example 584, 2-[[1-[3-(1,1-Difluoroethyl)-4-fluoro-phenyl]triazol-4-yl]methoxy]-5-methylsulfonyl-pyrimidine], for which the 50% inhibitory concentration (IC50) is 0.199 µM.

As for `CC(=O)c1cnc(OCc2cn(-c3ccc(F)c(C(C)(F)F)c3)nn2)nc1` [Example 585, 1-[2-[[1-[3-(1,1-Difluoroethyl)-4-fluoro-phenyl]triazol-4-yl]methoxy]pyrimidin-5-yl]ethanone], the IC50 amounted to 0.011 µM.

For `CC(F)(F)c1cc(-n2cc(COc3ncc(C4CC4)cn3)nn2)ccc1F` [Example 587, 5-Cyclopropyl-2-[[1-[3-(1,1-difluoroethyl)-4-fluoro-phenyl]triazol-4-yl]methoxy]pyrimidine], the half-inhibitory concentration (IC50) was determined as 0.041 µM.

For the compound `CC(F)(F)c1cc(-n2cc(COc3ncc(N4CCC4)cn3)nn2)ccc1F` [Example 588, 5-(Azetidin-1-yl)-2-[[1-[3-(1,1-difluoroethyl)-4-fluoro-phenyl]triazol-4-yl]methoxy]pyrimidine], the IC50 was determined as 0.034 µM.

In the case of `CC(F)(F)c1cc(-n2cc(COc3ncc(N4CC(F)C4)cn3)nn2)ccc1F` [Example 589, 2-((1-(3-(1,1-Difluoroethyl)-4-fluorophenyl)-1H-1,2,3-triazol-4-yl)methoxy)-5-(3-fluoroazetidin-1-yl)pyrimidine], the IC50 amounted to 0.013 µM.

Regarding `CN(C)c1cnc(OCc2cn(-c3ccc(F)c(C(C)(F)F)c3)nn2)nc1` [Example 590, 2-((1-(3-(1,1-Difluoroethyl)-4-fluorophenyl)-1H-1,2,3-triazol-4-yl)methoxy)-N,N-dimethylpyrimidin-5-amine], the IC50 came to 0.039 µM.
